Reference: ChEMBL document CHEMBL5625242, “Discovery of brain permeable 2-Azabicyclo[2.2.2]octane sulfonamides as a novel class of presenilin-1 selective γ-secretase inhibitors” (Eur J Med Chem, 2023)

Key:
Assay type in all cases: cell-based
[1] = Inhibition of human PSEN1/APH1A expressed in MEF cells with Psen1/2 double knockout/Aph1ABC triple knockout by ELISA
[2] = Inhibition of human PSEN1/APH1B expressed in MEF cells with Psen1/2 double knockout/Aph1ABC triple knockout by ELISA
[3] = Inhibition of human PSEN2/APH1A expressed in MEF cells with Psen1/2 double knockout/Aph1ABC triple knockout by ELISA
[4] = Inhibition of human PSEN2/APH1B expressed in MEF cells with Psen1/2 double knockout/Aph1ABC triple knockout by ELISA

IC50 [1] [nM] | IC50 [2] [nM] | IC50 [3] [nM] | IC50 [4] [nM] | SMILES
759 | 110 | – | – | O=S(=O)(c1ccc(Cl)cc1)N1[C@H]2CC[C@H]([C@H](O)C2)[C@H]1c1ccc(C(F)(F)F)cc1
> 10000 | > 10000 | > 10000 | > 10000 | N#Cc1ccc([C@@H]2[C@@H]3CC[C@@H](C[C@H]3O)N2S(=O)(=O)c2ccc(Cl)cc2)cn1
> 10000 | 1950 | > 10000 | > 10000 | O=C1C[C@@H]2CC[C@H]1[C@@H](c1ccc(F)c(F)c1)N2S(=O)(=O)c1ccc(Cl)s1 (racemic)
758 | 109 | > 10000 | > 10000 | O=S(=O)(c1ccc(Cl)cc1)N1[C@H]2CC[C@H]([C@H](O)C2)[C@H]1c1ccc(C(F)(F)F)cc1 (racemic)
3800 | 389 | 7000 | 8500 | CCNC(=O)Nc1ccc([C@@H]2[C@@H]3CC[C@@H](CC3=O)N2S(=O)(=O)c2ccc(Cl)cc2)cc1 (racemic)
891 | 234 | > 8000 | > 8000 | N#Cc1ccc([C@@H]2[C@@H]3CC[C@@H](CC3=O)N2S(=O)(=O)c2ccc(Cl)cc2)cc1 (racemic)
2630 | 389 | > 10000 | > 10000 | O=C1C[C@@H]2CC[C@H]1[C@@H](c1ccccc1Cl)N2S(=O)(=O)c1ccc(Cl)cc1 (racemic)
> 10000 | 1440 | > 10000 | > 10000 | COCC(=O)Nc1ccc([C@@H]2[C@@H]3CC[C@@H](CC3=O)N2S(=O)(=O)c2ccc(Cl)cc2)cc1 (racemic)
1900 | 588 | > 10000 | > 10000 | O=C1C[C@@H]2CC[C@H]1[C@@H](c1ccc(C(F)(F)F)nc1)N2S(=O)(=O)c1ccc(Cl)s1 (racemic)
2240 | 281 | > 10000 | > 10000 | O=C1C[C@@H]2CC[C@H]1[C@@H](c1ccc(Cl)cc1)N2S(=O)(=O)c1ccc(Cl)s1 (racemic)
> 10000 | 5890 | > 10000 | > 10000 | O=C1C[C@@H]2CC[C@H]1[C@@H](c1ccc(C(F)(F)F)cc1)N2S(=O)(=O)c1ccccc1Cl (racemic)
851 | 427 | 7760 | 7760 | O=S(=O)(c1ccc(Cl)cc1)N1[C@H]2CC[C@H]([C@H](O)C2)[C@H]1c1cc(F)ccc1F (racemic)
263 | 38 | > 2000 | > 2000 | O=S(=O)(c1ccc(Cl)cc1)N1[C@H]2CC[C@@H]([C@H]1c1ccc(C(F)(F)F)nc1)[C@@H](O)C2 (racemic)
691 | 131 | 3390 | 7580 | N#Cc1ccc([C@@H]2[C@@H]3CC[C@@H](CC3=O)N2S(=O)(=O)c2ccc(Cl)cc2)c(F)c1 (racemic)
3020 | 389 | 8500 | 8000 | CC(=O)Nc1ccc([C@@H]2[C@@H]3CC[C@@H](CC3=O)N2S(=O)(=O)c2ccc(Cl)s2)cc1 (racemic)
1000 | 208 | > 10000 | > 10000 | O=C1C[C@@H]2CC[C@H]1[C@@H](c1ccc(C(F)(F)F)cc1)N2S(=O)(=O)c1ccc(F)cc1 (racemic)
2240 | 426 | > 10000 | > 10000 | O=S(=O)(c1ccc(Cl)cc1)N1[C@H]2CC[C@H]([C@H](O)C2)[C@H]1c1ccccc1Cl (racemic)
6310 | 709 | > 10000 | > 10000 | CC(=O)Nc1ccc([C@@H]2[C@@H]3CC[C@@H](CC3=O)N2S(=O)(=O)c2ccc(Cl)cc2)cc1 (racemic)
